The results in this text go back to patent US20100234314A1, “IDARUBICIN FOR THE TREATMENT OF LYMPHOMA IN A DOG” (priority 2007, published 2010).

Data set [1] has as its system 3132 canine lymphoma cell line (B-cell LSA line). As to the kind of experiment: In vitro anti-proliferation assay (MTS), 3132 cell line. In kind it is cell-based. Particulars: Canis lupus familiaris; 3132, B-cell LSA line. The text has this:
(§1) (2) Ex vivo canine lymphoma nodal tissue. […] (3) In vitro Anti-Proliferation Assay Method.
(§2) (Mean Drug Treatment OD−Mean media blank OD)×100=% Control Proliferation
(§3) (Mean Untreated OD−Mean media blank OD)

The test system of data set [2] is CL-1 canine lymphoma cell line (T-cell LSA line). Kind of data set: In vitro anti-proliferation assay (MTS), CL-1 cell line. It counts as cell-based. The settings on record: Canis lupus familiaris; CL-1, T-cell LSA line.
Description: as §1, §2, §3

Data set [3] deals with canine lymphoma cell lines. Kind of data set: Anti-proliferation, canine lymphoma cell lines. It counts as cell-based. Particulars: summary.
Description: as §1, §2, §3

A short description of data set [4]: Oral bioavailability in dogs, effect of feeding. In kind it is in vivo. Particulars: dog.
The subject of data set [5] is ex-vivo derived canine lymphoma cells (nodal tissue). As to the kind of experiment: In vitro anti-proliferation assay (MTS), ex vivo canine lymphoma nodal tissue. Particulars: for Inhibition of the proliferation of canine lymphoma nodal tissues: summary; for pIC50: read-out: Anti-proliferation IC50.
Description: The study utilized an in vitro assay run with ex-vivo derived canine lymphoma cells and with established cell lines maintained over many passages using standard tissue culture techniques. Nodal tissues were obtained from canine lymphoma patients at the MSU Veterinary Clinic.
(2) Ex vivo canine lymphoma nodal tissue. Malignant lymph nodes were excised by veterinary staff at Michigan State University (MSU) Veterinary College, placed into transport media (Advanced RPMI 1640 complete medium supplemented with 10% Fetal Bovine Serum (FBS), 100 U/mL penicillin, 100 ug/mL streptomycin and 0.25 ug/mL Amphotercin B (Invitrogen/Gibco®). Nodes were processed within 24 hours of removal by mincing into tiny pieces and passing through a tissue sieve. Cell suspensions were spun at 200×g, supernatant was removed, and the cell pellet was resuspended in NH4Cl (0.15M) for 10 minutes at room temperature. The cell suspension was pelleted by centrifugation; the NH4Cl was removed and washed once with Hanks Balanced Salt Solution (HBSS), followed by re-suspension in Proliferation Medium (Advanced RPMI complete, 1% FBS, 50 nM 2-Mercaptoethanol, 100 U/mL penicillin, 100 ug/mL streptomycin and 0.25 ug/mL Amphotercin B). The cell suspension was then passed through a 100 μm nylon cell strainer (BD-Falcon) and counted using a hemacytometer. Cells were cultured in either Proliferation Medium alone, Proliferation Medium supplemented with 0.005% Pansorbin® (Heat inactivated, formalin-fixed Staphylococcus Aureus cells (SAC), Calbiochem), and 10 ng/mL canine IL-2 (R&D Systems), or Proliferation Medium supplemented with 125 ng/mL concavalin A (Sigma) and 125 ng/mL lipopolysaccamide (LPS; Calbiochem). (3) In vitro Anti-Proliferation Assay Method. Cells cultured in medium described above were plated in 96-well Costar plates (Corning) at a density of 1×10^3 cells/well (lymphoma cell lines) or 2×10^5 cells/well (lymph node cells) and exposed to various concentrations of test compounds for up to 5 days at 37° C. in a humidified incubator with 5% CO2. Effects on proliferation were determined using the CellTiter 96® Aqueous Non-Radioactive Cell Proliferation Assay (Promega) according to manufacturer's instructions. In general, proliferation was indirectly measured using a soluble tetrazolium salt (MTS) and an electron coupling agent. MTS bioreduction into a formazan product soluble in tissue culture medium was monitored by absorbance at 490 nm on a Spectramax plate reader using Softmax Pro 4.6 software (Molecular Devices). […] (4) Data Analysis: For nodal tissue, data were handled in the following manner through Prism 4.0 (Graphpad Software). Mean values from raw optical density values (OD) were calculated for the Un-stimulated, Simulated and all Drug Treatment (triplicates) and used in the following formula:
(Mean Drug Treatment OD−Mean Un-stim OD)×100=% Control Proliferation
(Mean Stim OD−Mean Un-stim OD)
Once calculated, these values for each drug concentration (or standard) were graphed and an IC50 calculated by a point to point analysis. Percent control values were not allowed to exceed 100% or fall below 0% for analysis of IC50 values.
Setting [6] is: MSU LN 1, chemotherapy resistant B-cell LSA, stimulant SAC + IL-2.
Where [7] appears, read: MSU LN 1 ID618801, chemotherapy resistant B-cell LSA, stimulant LPS + ConA.
The mark [8] stands for this setting: MSU LN 6, chemotherapy resistant T-cell LSA, stimulant SAC + IL-2.
Setting [9] is: MSU LN 6 ID401557, chemotherapy resistant T-cell LSA, stimulant LPS + ConA.
The mark [10] stands for this setting: MSU LN 7 ID663780, chemotherapy resistant T-cell LSA, stimulant LPS + ConA.
[11] abbreviates: MSU LN 8, de novo T-cell lymphoma, stimulant SAC + IL-2.
The mark [12] stands for this setting: MSU LN 8 ID668165, de novo T-cell lymphoma, stimulant LPS + ConA.
Setting [13] is: MSU LN 10 ID401979, chemotherapy resistant B-cell LSA, stimulant LPS + ConA.

pIC50: −log10 of the molar value. Read-outs that look alike come from different tables or passages of the source. Some results are limits rather than exact numbers.

As to `CC(=O)[C@]1(O)Cc2c(O)c3c(c(O)c2[C@@H](O[C@H]2C[C@H](N)[C@H](O)[C@H](C)O2)C1)C(=O)c1ccccc1C3=O` [Idarubicin, idarubicin], the pIC50 in data set [1] is 8.57; in data set [2], 8.72; in data set [5] (setting [6]), 8.12; in data set [5] (setting [7]) it was 8.12; in data set [5] (setting [8]), 8.60; in data set [5] (setting [9]), 8.52. Further, the pIC50 was 8.60 in data set [5] (setting [10]); 8.52 in data set [5] (setting [11]); 8.40 in data set [5] (setting [12]); 7.25 in data set [5] (setting [13]); 8.40 in data set [5] (MSU LN 11 ID671795, de novo B-cell LSA, stimulant LPS + ConA); 7.96 in data set [5] (MSU LN 14 ID403527, de novo T-cell LSA, stimulant Con A). The “Inhibition of the proliferation of canine lymphoma cell lines” value in data set [3] is recorded as “inhibited”. Further, in data set [4], the “Oral bioavailability, effect of feeding” value is given as “not adversely affected by feeding”. The “Potency and cytotoxicity compared with doxorubicin” value in data set [5] (all nodal and cell line lymphomas regardless of B or T-cell lineage) was “more potent and cytotoxic than doxorubicin”. For the same molecule, the “Inhibition of proliferation compared with doxorubicin” value in data set [5] (all nodal tissue from dogs diagnosed with chemotherapy resistant lymphomas) is “more effective”. Also, the “Inhibition of the proliferation of canine lymphoma nodal tissues” value in data set [5] is given as “dose dependent inhibition”.
Take `COc1cccc2c1C(=O)c1c(O)c3c(c(O)c1C2=O)C[C@@](O)(C(=O)CO)C[C@@H]3O[C@H]1C[C@H](N)[C@H](O)[C@H](C)O1` [Doxorubicin, doxorubicin]: the pIC50 in data set [2] was 8.37; in data set [5] (setting [6]), 7.96; in data set [5] (setting [7]) it was 7.26; in data set [5] (setting [8]), 7.89; in data set [5] (setting [9]), 7.55; in data set [5] (setting [10]), 8.00. In addition, the pIC50 is 8.15 in data set [5] (setting [11]), 8.05 in data set [5] (setting [12]) and below 7.00 in data set [5] (setting [13]). Further, in data set [3], the “Inhibition of the proliferation of canine lymphoma cell lines” value is “inhibited”. The “Inhibition of the proliferation of canine lymphoma nodal tissues” value in data set [5] is on record as “dose dependent inhibition”.
